Laboratory results: ChEMBL document CHEMBL5291721, “A preclinical secondary pharmacology resource illuminates target-adverse drug reaction associations of marketed drugs” (Nat Commun, 2023)

Legend:
[1] = biological target: Acetylcholinesterase (Homo sapiens, UniProt P22303); format: functional
[2] = biological target: T1, Alpha-2A adrenergic receptor (Homo sapiens, UniProt P08913)
T1 sequence (P08913 whole entry): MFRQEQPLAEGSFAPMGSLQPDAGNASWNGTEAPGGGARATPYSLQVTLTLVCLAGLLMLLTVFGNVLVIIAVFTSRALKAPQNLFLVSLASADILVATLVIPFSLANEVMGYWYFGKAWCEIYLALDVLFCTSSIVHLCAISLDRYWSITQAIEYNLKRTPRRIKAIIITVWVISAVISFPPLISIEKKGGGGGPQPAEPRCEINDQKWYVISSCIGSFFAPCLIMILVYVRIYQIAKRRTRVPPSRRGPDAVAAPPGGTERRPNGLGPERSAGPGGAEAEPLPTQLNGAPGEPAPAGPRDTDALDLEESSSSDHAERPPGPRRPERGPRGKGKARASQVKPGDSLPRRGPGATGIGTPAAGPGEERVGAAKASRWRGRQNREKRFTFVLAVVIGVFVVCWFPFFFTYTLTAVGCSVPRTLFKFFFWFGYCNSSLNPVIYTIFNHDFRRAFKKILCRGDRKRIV

[3] = biological target: Prothrombin (Homo sapiens, UniProt P00734); format: functional
[4] = biological target: Gamma-aminobutyric acid receptor subunit alpha-1 (Rattus norvegicus, UniProt P62813)
[5] = biological target: Glutamate receptor ionotropic, NMDA 1 (Rattus norvegicus, UniProt P35439)
[6] = biological target: Histamine H2 receptor (Homo sapiens, UniProt P25021); format: functional, cell-based
[7] = biological target: Histamine H3 receptor (Homo sapiens, UniProt Q9Y5N1)
[8] = biological target: 5-hydroxytryptamine receptor 2B (Homo sapiens, UniProt P41595); format: functional, cell-based
[9] = biological target: T2, Progesterone receptor (Homo sapiens, UniProt P06401)
T2 sequence (P06401 whole entry): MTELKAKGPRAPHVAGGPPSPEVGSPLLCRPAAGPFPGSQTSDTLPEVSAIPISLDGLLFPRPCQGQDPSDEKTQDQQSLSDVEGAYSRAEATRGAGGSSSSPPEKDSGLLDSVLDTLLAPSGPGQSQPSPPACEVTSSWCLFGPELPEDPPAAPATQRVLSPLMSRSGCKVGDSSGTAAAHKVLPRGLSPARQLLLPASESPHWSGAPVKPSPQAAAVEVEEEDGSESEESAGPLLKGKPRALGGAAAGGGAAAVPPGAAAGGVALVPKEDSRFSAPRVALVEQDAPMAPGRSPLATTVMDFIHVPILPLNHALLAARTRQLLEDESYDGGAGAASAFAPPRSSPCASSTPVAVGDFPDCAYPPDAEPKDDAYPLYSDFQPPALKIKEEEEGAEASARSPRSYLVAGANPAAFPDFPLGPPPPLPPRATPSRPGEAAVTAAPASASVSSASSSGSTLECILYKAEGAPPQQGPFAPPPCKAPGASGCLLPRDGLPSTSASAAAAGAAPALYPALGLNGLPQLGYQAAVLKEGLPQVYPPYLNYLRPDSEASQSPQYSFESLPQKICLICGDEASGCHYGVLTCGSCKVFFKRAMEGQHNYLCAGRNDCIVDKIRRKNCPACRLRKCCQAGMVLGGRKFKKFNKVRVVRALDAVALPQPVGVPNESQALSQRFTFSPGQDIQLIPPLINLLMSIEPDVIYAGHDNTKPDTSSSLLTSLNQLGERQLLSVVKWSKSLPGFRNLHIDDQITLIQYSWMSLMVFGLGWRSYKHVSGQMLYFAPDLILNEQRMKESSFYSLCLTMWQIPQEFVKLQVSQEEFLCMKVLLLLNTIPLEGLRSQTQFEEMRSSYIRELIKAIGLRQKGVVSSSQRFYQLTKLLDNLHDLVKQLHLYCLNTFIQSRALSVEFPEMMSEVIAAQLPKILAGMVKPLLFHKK

[10] = biological target: Prostaglandin G/H synthase 1 (Homo sapiens, UniProt P23219); format: functional
[11] = biological target: T3, Thromboxane A2 receptor (Homo sapiens, UniProt P21731); format: functional, cell-based
T3 sequence (P21731 whole entry): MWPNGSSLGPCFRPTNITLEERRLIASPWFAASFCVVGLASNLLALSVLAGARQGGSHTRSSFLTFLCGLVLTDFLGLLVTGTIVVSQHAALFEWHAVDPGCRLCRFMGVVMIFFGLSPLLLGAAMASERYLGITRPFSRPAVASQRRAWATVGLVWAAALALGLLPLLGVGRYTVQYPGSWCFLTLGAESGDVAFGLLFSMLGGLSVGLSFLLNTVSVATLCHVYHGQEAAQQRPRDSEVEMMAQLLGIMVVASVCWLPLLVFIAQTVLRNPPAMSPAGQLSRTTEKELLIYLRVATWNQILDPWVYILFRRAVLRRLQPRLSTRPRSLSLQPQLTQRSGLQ

[12] = biological target: Vasopressin V1a receptor (Homo sapiens, UniProt P37288)
[13] = biological target: Voltage-dependent L-type calcium channel subunit alpha-1C (Rattus norvegicus, UniProt P22002); format: functional
[14] = biological target: T4, 5-hydroxytryptamine receptor 1A (Homo sapiens, UniProt P08908); format: functional, cell-based
T4 sequence (P08908 whole entry): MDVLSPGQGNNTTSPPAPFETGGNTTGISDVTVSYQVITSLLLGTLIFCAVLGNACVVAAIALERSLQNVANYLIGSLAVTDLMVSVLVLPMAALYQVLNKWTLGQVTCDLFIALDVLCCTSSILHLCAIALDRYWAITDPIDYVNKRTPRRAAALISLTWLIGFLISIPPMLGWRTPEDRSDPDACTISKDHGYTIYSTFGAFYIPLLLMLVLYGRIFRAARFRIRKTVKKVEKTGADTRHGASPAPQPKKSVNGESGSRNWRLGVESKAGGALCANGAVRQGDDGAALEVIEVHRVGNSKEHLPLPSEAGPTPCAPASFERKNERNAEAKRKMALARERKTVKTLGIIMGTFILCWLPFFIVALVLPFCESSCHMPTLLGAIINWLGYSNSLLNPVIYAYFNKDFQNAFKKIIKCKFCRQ
Further: assay procedure not described here.

Sequence of Histamine H2 receptor (P25021 whole entry): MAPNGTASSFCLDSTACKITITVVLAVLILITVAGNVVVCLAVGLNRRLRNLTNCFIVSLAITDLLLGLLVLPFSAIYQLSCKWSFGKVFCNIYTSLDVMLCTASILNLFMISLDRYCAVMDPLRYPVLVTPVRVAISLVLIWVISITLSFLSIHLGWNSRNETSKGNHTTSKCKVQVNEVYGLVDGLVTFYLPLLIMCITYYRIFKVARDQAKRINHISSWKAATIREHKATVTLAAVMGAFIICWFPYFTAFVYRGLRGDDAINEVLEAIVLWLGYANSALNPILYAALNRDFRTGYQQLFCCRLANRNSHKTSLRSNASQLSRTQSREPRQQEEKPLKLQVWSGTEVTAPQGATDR
Sequence of Gamma-aminobutyric acid receptor subunit alpha-1 (P62813 whole entry): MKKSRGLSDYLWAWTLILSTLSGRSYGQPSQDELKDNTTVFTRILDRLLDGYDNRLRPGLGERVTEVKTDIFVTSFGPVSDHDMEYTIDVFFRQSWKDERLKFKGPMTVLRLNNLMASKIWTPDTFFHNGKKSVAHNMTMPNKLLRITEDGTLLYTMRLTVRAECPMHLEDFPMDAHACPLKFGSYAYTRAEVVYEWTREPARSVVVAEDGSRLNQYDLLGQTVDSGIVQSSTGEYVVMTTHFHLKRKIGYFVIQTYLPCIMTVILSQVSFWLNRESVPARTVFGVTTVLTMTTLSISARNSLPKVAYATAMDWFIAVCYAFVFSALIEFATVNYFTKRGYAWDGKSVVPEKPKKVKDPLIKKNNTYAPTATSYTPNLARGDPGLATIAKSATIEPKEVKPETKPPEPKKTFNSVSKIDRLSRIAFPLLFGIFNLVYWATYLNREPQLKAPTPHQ
Sequence of Acetylcholinesterase (P22303 whole entry): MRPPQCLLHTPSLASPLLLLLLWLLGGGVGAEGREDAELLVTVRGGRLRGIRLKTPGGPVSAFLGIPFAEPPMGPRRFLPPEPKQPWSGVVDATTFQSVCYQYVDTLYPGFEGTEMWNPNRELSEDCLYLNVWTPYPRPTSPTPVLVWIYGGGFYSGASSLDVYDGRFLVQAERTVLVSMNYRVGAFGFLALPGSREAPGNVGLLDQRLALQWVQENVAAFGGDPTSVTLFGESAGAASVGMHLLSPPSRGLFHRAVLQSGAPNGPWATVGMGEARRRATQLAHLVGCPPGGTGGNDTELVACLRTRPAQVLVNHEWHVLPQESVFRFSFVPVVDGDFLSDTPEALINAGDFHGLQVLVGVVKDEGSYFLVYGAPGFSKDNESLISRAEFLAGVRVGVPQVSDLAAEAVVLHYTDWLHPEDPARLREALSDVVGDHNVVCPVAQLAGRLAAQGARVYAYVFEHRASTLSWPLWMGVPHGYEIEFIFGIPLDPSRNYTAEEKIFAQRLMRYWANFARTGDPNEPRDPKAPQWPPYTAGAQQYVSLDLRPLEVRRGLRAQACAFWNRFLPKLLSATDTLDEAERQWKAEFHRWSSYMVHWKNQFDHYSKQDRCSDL
Sequence of Histamine H3 receptor (Q9Y5N1 whole entry): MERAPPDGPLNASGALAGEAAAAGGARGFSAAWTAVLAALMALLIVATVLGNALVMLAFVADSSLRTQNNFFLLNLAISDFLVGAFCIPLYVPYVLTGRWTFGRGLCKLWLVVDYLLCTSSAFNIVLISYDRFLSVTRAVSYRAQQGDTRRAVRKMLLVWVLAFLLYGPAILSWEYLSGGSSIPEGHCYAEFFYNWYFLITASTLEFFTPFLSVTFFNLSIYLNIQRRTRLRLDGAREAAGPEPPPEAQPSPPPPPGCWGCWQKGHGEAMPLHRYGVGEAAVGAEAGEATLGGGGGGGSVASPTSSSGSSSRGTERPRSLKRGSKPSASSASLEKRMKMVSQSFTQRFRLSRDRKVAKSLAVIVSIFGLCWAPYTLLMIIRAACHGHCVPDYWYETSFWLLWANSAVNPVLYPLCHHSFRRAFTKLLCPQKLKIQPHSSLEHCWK
Sequence of 5-hydroxytryptamine receptor 2B (P41595 whole entry): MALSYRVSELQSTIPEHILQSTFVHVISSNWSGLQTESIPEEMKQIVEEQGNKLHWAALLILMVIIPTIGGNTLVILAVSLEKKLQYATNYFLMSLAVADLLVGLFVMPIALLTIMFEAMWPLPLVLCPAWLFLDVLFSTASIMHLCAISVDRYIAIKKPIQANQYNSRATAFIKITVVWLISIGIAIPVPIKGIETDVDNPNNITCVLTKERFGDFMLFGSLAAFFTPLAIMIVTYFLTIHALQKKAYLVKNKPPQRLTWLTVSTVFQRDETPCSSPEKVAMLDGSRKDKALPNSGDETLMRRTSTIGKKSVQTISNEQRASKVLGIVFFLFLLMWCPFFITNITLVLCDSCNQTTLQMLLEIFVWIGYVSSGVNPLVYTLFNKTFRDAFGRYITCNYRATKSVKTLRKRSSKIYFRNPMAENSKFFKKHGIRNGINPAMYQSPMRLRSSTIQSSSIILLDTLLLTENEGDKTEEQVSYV
Sequence of Prostaglandin G/H synthase 1 (P23219 whole entry): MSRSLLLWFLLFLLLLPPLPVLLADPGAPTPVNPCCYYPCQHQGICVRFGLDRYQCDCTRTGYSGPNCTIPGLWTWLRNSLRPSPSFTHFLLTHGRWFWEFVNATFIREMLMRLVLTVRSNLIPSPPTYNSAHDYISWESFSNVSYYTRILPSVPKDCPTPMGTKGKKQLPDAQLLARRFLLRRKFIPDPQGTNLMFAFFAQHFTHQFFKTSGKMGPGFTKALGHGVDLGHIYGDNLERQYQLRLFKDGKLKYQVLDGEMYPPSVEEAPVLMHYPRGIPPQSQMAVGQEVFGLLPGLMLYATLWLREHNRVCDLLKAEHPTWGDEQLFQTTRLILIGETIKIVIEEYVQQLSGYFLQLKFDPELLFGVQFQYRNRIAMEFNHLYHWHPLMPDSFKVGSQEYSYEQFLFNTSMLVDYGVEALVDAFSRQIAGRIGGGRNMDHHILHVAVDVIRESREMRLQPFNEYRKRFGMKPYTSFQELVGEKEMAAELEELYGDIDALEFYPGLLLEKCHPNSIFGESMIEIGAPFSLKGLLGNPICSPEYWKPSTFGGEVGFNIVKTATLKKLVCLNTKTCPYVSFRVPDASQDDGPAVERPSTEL
Sequence of Vasopressin V1a receptor (P37288 whole entry): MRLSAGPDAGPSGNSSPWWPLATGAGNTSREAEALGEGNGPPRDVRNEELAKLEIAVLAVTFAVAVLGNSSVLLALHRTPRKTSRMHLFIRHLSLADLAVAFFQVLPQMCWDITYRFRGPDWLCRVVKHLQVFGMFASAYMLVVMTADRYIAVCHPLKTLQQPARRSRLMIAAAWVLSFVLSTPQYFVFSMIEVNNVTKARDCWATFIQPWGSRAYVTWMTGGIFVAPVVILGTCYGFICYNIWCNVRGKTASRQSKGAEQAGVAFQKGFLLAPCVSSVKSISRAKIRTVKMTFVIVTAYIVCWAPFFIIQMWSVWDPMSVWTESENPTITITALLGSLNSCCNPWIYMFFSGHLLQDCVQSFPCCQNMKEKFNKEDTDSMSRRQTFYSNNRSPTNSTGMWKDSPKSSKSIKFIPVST

Structure (SMILES)	AC50 [1] [µM]	AC50 [2] [µM]	AC50 [3] [µM]	AC50 [4] [µM]	AC50 [5] [µM]	AC50 [6] [µM]	AC50 [7] [µM]	AC50 [8] [µM]	AC50 [9] [µM]	AC50 [10] [µM]	AC50 [11] [µM]	AC50 [12] [µM]	AC50 [13] [µM]	AC50 [14] [µM]
C#CCN(C)Cc1ccccc1 [PARGYLINE]	> 30	> 30	> 30	> 30	> 30	> 30	> 30	> 30	> 30	> 30	> 30	–	–	–
CC(=O)Oc1ccccc1C(=O)O [ASPIRIN]	> 30	> 30	> 30	> 10	> 10	> 10	> 30	> 30	> 30	–	> 30	> 30	> 10	> 10
O=C(O)[C@H](O)[C@@H](O)[C@H](O)[C@H](O)CO [GLUCONIC ACID]	> 30	> 30	> 30	–	–	–	> 30	> 30	> 30	> 30	> 30	–	–	–
CO[C@@]1(NC(=O)C(C(=O)O)c2ccc(O)cc2)C(=O)N2C(C(=O)O)=C(CSc3nnnn3C)CO[C@@H]21 (some centres not stated) [MOXALACTAM]	> 30	> 30	> 30	–	–	–	> 30	> 30	> 30	9.25	> 30	–	–	–
O=NN(CCCl)C(=O)NC1CCCCC1 [LOMUSTINE]	> 30	3.5	> 30	–	–	–	> 30	> 30	> 30	> 30	> 30	–	–	–
CC(C)(Oc1ccc(Cl)cc1)C(=O)NC(=O)NCN1CCOCC1 [PLAFIBRIDE]	> 30	> 30	> 30	–	–	–	> 30	> 30	> 30	> 30	> 30	–	–	–
N=C(N)NCC1COc2ccccc2O1 (configuration not stated) [GUANOXAN]	> 30	0.15	> 30	–	–	–	> 30	> 30	> 30	> 30	19.9	–	–	–
CNC1(c2ccccc2Cl)CCCCC1=O (configuration not stated) [KETAMINE]	> 30	> 30	> 30	–	–	–	> 30	> 30	> 30	> 30	> 30	–	–	–
CC1=C(C/C=C(\C)CCC[C@H](C)CCC[C@H](C)CCCC(C)C)C(=O)c2ccccc2C1=O [PHYTONADIONE]	> 30	> 30	> 30	–	–	–	> 30	> 30	> 30	> 30	> 30	–	–	–
CN(C)CCN(Cc1ccccc1)c1ccccn1 [TRIPELENNAMINE]	> 30	3.08	> 30	> 10	> 10	> 10	> 30	> 30	–	> 30	> 30	> 10	> 10	> 10
CN1CCC(N(Cc2cccs2)c2ccccc2)CC1 [THENALIDINE]	> 30	8.45	> 30	–	–	–	> 30	> 30	> 30	> 30	> 30	–	–	–
Cc1cc(C)cc(OCC2CNC(=O)O2)c1 (configuration not stated) [METAXALONE]	> 30	> 30	> 30	–	–	–	> 30	> 30	> 30	> 30	> 30	–	–	–
CCCCCCCCCCCCCCCC(=O)OC[C@H](COP(=O)([O-])OCC[N+](C)(C)C)OC(=O)CCCCCCCCCCCCCCC [COLFOSCERIL PALMITATE]	> 30	> 30	> 30	–	–	–	> 30	> 30	> 30	> 30	> 30	–	–	–
CC#CC(=O)N1CCC[C@H]1c1nc(-c2ccc(C(=O)Nc3ccccn3)cc2)c2c(N)nccn12 [ACALABRUTINIB]	> 30	> 30	> 30	–	–	–	> 30	> 30	> 30	> 30	> 30	–	–	–
Cc1ccc(C(C)C)c(O)c1 [THYMOL]	> 30	> 30	> 30	–	–	–	> 30	> 30	> 30	> 30	> 30	–	–	–
O=C(Cc1cccs1)N[C@@H]1C(=O)N2C(C(=O)[O-])=C(C[n+]3ccccc3)CS[C@H]12 [CEPHALORIDINE]	> 30	> 30	> 30	> 30	> 30	> 30	> 30	> 30	> 30	16.4	> 30	–	–	> 30
Cc1cccc(C)c1NC(=O)c1cc(S(N)(=O)=O)c(Cl)cc1O [XIPAMIDE]	> 30	> 30	> 30	–	–	–	> 30	> 30	> 30	> 30	> 30	–	–	–
NC(=O)C1(N2CCCCC2)CCN(CCCC(=O)c2ccc(F)cc2)CC1 [PIPAMPERONE]	> 30	5.47	> 30	–	–	–	21.7	> 30	> 30	> 30	> 30	–	–	–
O=C(O)[C@@H](S)[C@@H](S)C(=O)O	> 30	> 30	2.64	–	–	–	> 30	> 30	> 30	> 30	> 30	–	–	–
CC(C)Nc1cccnc1N1CCN(C(=O)c2cc3cc(NS(C)(=O)=O)ccc3[nH]2)CC1 [DELAVIRDINE]	> 30	13.4	> 30	–	–	–	> 30	> 30	> 30	> 30	23.2	–	–	–
